Test results as given in patent publication US20250387375A1, “SOFALCONE DERIVATIVES AND MEDICAL USE THEREOF” (KAOHSIUNG MEDICAL UNIVERSITY, priority 2024, published 2025).

Legend:
TxA2 receptor = molecular target: T1, TxA2 receptor (Homo sapiens, UniProt P21731); assay: Competitive antagonism of U46619-induced platelet aggregation (U46619 concentration-response curves); type: cell-based; conditions: for mode of action at TxA2 receptor: concluded from parallel right shift of U46619 curves; for U46619 concentration-platelet aggregation response curve / maximum level of platelet aggregation: U46619 0.1-10 μM
T1 construct: The blood samples were centrifuged to obtain platelets, and residual plasma was removed by washing to prepare platelet suspension; endogenous in cells; host or cells: washed human platelets from healthy donors
T1 sequence (P21731 1-343): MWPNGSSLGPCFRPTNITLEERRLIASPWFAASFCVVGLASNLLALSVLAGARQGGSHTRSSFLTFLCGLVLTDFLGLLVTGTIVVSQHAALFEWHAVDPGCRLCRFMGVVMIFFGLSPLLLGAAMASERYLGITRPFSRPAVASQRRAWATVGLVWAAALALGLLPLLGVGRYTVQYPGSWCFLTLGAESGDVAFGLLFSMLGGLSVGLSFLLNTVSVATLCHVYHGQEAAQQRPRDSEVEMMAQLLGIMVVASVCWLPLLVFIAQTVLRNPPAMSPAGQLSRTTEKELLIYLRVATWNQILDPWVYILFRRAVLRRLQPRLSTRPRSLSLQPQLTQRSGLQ
Method: After human platelet suspension was pretreated with dimethyl sulfoxide (DMSO) or sofalcone (SFC) (FIG. 5A), sofalcone derivative 3 (FIG. 5B), and sofalcone derivative 30 (FIG. 5C), different concentrations of U46619 (0.1-10 μM) were added to stimulate platelet aggregation reaction. Data are presented as mean±standard error of the mean (n=5).
(§1) Blood samples were collected from healthy donors, and acid-citrate-dextrose (ACD) solution was used as an anticoagulant. The blood samples were centrifuged to obtain platelets, and residual plasma was removed by washing to prepare platelet suspension.
In the experimental method, a platelet aggregometer (Chrono-Log Co., Havertown, PA, USA) was used for tests. The compound to be tested was added to the platelet suspension and reacted for 3 minutes at 37° C. with stirring (1200 rpm). Then, platelet stimulator U46619 or collagen was added to initiate platelet aggregation, and the test time was 5 minutes. The principle of the platelet aggregation test was: when platelets were stimulated to induce aggregation reaction, the light transmission of the platelet suspension would increase; by calculating changes in light transmission of the platelet suspension before and after being stimulated, the percentage of platelet aggregation could be obtained.
After pretreating human platelet suspensions with dimethylsulfoxide (DMSO), sofalcone (20 μM and 50 μM), and sofalcone derivatives 3 or 30 (0.2 μM and 0.5 μM, respectively), different concentrations of U46619 (0.1-10 μM) were added to stimulate platelet aggregation.

[1] = test system: human platelet suspension (platelet aggregation caused by TxA2 agonist U46619); assay: Platelet aggregation reaction test, U46619-induced; type: cell-based
In short: (§2)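 Washed platelets from healthy human donors (ACD-anticoagulated blood) were preincubated with compound for 3 min at 37 °C under 1200 rpm stirring. Aggregation was then triggered with U46619 or collagen and followed for 5 min by light transmission aggregometry. Percent aggregation came from the change in transmission before and after stimulation.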

[2] = test system: TxB2 formation in human platelet suspensions; assay: Measurement of platelet TxB2 level after arachidonic acid; type: cell-based; conditions: AA 100 μM; human platelet suspension
Method: (§3) FIGS. 6A and 6B show the effect of sofalcone and its derivatives on TxB2 and PGE2 productions induced by arachidonic acid (AA). […] After human platelet suspension was pretreated with dimethyl sulfoxide (DMSO) or sofalcone (SFC), sofalcone derivative 3, and sofalcone derivative 30, arachidonic acid (100 μM) was added to stimulate the productions of arachidonic acid metabolites TxB2 and PGE2. Data are presented as mean±standard error of the mean (n>5). Compared with the control group, *P<0.05, **P<0.01, ***P<0.001. ASA: Aspirin.
as §1
(§4) The compound to be tested was added to the platelet suspension and reacted for 3 minutes at 37° C. under stirring (1200 rpm), then arachidonic acid (AA) (100 μM) was added to react for 4 minutes, and finally EDTA (5 mM) was added to terminate the reaction. The above sample was centrifuged at 13,000 rpm for 1 minute at 4° C. and the supernatant was collected. The concentrations of TxB2 and PGE2 in the supernatant were measured respectively using enzyme immunoassay kits (TxB2 ELISA kit and PGE2 ELISA kit; Cayman Chemical Company).

[3] = test system: human platelet suspension (platelet aggregation caused by collagen); assay: Platelet aggregation reaction test, collagen-induced; type: cell-based; conditions: read-out: Collagen IC 50
In short: as §2

[4] = test system: PGE2 formation in human platelet suspensions; assay: Measurement of platelet PGE2 level after arachidonic acid; type: cell-based; conditions: AA 100 μM; human platelet suspension
Method: as §3, §1, §4

[5] = test system: normal hemostatic function (tail bleeding); assay: Mouse bleeding test (tail bleeding time); type: in vivo, BALB/c mice
Method: Mice were orally administered by gavage with sofalcone (SFC, once daily for 4 days), derivative 17, or aspirin (ASA) (single administration only). Then the mouse's tail was transected and the tail bleeding time was recorded. Data are presented as mean±standard error of the mean (n≥6). Compared with the control group, ***P<0.001. n.s.: No significant difference. In the present invention, the effect of the to-be-tested compound on normal hemostasis was evaluated by docking off the tail ends of the mice to cause bleeding. The to-be-tested compound was orally administered to BALB/c mice aged approximately 6-8 weeks by gavage. Then, the mice were anesthetized with isoflurane, and 2 mm of the distal end of their tails were excised. The tails of the mice were immersed in physiological saline at 37° C., and the bleeding time was observed. The determination of bleeding time was: the time required from the time the mouse tail was cut off until the bleeding completely stopped.

[6] = test system: FeCl3-induced carotid artery thrombosis; assay: Ferric chloride-induced carotid artery thrombosis in mice; type: in vivo, BALB/c mice; conditions: oral gavage
Method: Mice were orally administered by gavage with sofalcone (SFC, once daily for 4 days), derivative 17, or aspirin (ASA) (single administration only). The mice are then treated with ferric chloride solution to induce carotid artery thrombosis, and an ultrasound imaging system was used to monitor the time required for the thrombus to block the carotid artery (occlusion time). Data are presented as mean±standard […] error of the mean (n≥6). Compared with the control group, *P<0.05, ***P<0.001. In this experiment, a ferric chloride-induced arterial injury was used to evaluate the antithrombotic effect of the to-be-tested compound. The to-be-tested compound was orally administered by gavage to BALB/c mice aged approximately 6-8 weeks. Then, the mice were anesthetized with isoflurane, the right carotid artery was exposed through surgery, and filter paper (2×4 mm^2) containing 8.5% ferric chloride was attached to the right carotid artery for 3 minutes. After removing the filter paper, remaining ferric chloride was wiped off with cotton balls soaked with physiological saline, and an ultrasonic imaging system (VEVO 2100 system, VisualSonics) equipped with a Doppler flow probe (MS400, 18-38 MHz) was used to monitor the blood flow of the right carotid artery. The occlusion time was determined when the blood flow completely stopped for at least 1 minute. If the occlusion time was longer than 30 minutes, it was considered the end point of the experiment.

human recombinant COX1 = molecular target: T2, human recombinant COX1 (Homo sapiens, UniProt P23219); assay: COX1 enzyme activity assay; type: biochemical
T2 construct: purchased Cayman Chemical Company
T2 sequence (P23219 24-599): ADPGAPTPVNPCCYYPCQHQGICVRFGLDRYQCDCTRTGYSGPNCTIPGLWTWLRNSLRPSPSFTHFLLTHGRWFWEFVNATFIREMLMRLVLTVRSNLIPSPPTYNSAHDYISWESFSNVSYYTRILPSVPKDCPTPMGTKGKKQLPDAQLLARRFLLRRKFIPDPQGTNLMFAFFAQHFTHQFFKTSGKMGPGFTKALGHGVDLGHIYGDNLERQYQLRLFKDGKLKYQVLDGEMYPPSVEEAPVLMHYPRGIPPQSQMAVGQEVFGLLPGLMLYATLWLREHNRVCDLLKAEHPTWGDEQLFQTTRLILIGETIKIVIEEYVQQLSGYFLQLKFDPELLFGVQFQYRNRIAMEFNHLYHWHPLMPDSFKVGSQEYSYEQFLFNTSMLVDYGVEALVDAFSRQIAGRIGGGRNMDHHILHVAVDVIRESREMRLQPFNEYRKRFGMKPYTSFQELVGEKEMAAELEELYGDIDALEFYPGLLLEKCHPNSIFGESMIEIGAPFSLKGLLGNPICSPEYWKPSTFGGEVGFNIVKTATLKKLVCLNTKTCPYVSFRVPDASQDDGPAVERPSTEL
Method: (§5) COX1 and COX2 enzyme activities were analyzed by using a human COX inhibitor screening assay kit (Cayman Chemical Company). After allowing the to-be-tested compound, human recombinant COX1 or COX2 enzyme and heme to stand at 37° C. for 15 minutes, AA (10 μM) was added to react for 2 minutes. Then, stannous chloride was added to reduce PGH2, the product of the above COX reaction, to PGF2α. Finally, the PGF2α level in the sample was measured by using enzyme immunoassay, and the inhibition percentage was calculated.

human recombinant COX2 = molecular target: T3, human recombinant COX2 (Homo sapiens, UniProt P35354); assay: COX2 enzyme activity assay; type: biochemical
T3 construct: purchased Cayman Chemical Company
T3 sequence (P35354 18-604): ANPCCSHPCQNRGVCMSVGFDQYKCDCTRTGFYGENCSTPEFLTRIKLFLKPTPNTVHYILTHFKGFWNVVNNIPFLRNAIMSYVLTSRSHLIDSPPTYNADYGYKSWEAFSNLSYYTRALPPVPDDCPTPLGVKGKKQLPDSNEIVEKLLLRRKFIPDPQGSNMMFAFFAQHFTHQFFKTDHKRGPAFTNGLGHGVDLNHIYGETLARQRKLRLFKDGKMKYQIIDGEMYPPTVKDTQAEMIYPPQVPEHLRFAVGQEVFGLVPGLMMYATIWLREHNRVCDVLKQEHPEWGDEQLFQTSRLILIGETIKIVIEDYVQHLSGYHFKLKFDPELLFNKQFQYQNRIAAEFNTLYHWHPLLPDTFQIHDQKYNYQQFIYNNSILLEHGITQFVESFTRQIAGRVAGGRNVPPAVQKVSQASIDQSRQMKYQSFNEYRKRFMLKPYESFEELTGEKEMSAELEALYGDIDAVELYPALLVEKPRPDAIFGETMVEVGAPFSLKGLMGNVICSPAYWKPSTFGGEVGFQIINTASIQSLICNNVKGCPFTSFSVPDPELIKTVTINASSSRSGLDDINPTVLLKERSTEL
Method: as §5

Structure (SMILES)	mode of action at TxA2 receptor (TxA2 receptor)	U46619 concentration-platelet aggregation response curve (TxA2 receptor; pretreatment 0.2 μM and 0.5 μM)	maximum level of platelet aggregation (TxA2 receptor; pretreatment 0.2 μM and 0.5 μM)	IC50 [1]	formation of TxB2 induced by arachidonic acid [2]	IC50 [3]	formation of PGE2 induced by arachidonic acid [4]	carotid artery occlusion time ([6]; single dose 25 mg/kg)	other results
CC(C)=CCOc1ccc(/C=C/C(=O)c2ccc(OCC=C(C)C)cc2OCCCC(=O)O)cc1 [Compound 30]	competitively antagonize	shifted parallelly to the right	not significantly affected	40 nM	did not inhibit	380 nM	did not inhibit	–	–
CC(C)=CCOc1ccc(/C=C/C(=O)c2ccc(OCC=C(C)C)cc2OCCCC(=O)[O-])cc1.[K+] [Compound 17]	–	–	–	40 nM	–	320 nM	–	significantly prolonged	tail bleeding time ([5]; mouse, in vivo, po, 10 mg/kg): did not affect; tail bleeding time ([5]; mouse, in vivo, po, 25 mg/kg): did not affect; carotid artery occlusion time ([6]; single dose 10 mg/kg): significantly prolonged
CC(=O)Oc1ccccc1C(=O)O [Aspirin, reference compound]	–	–	–	> 200000 nM	inhibited	79000 nM	inhibited	prolonged	tail bleeding time ([5]; mice, oral gavage, single dose 25 mg/kg): significantly prolonged; inhibition at 200 µM (human recombinant COX1; read-out: COX1 (Inhibition rate %)): 26%
CC(C)=CCOc1ccc(/C=C/C(=O)c2ccc(OCC=C(C)C)cc2OCC(=O)O)cc1 [SFC, sofalcone]	competitively antagonize	–	–	16000 nM	did not inhibit	49000 nM	did not inhibit	–	tail bleeding time ([5]; mice, oral gavage, 50 mg/kg per day for 4 days): did not affect; carotid artery occlusion time ([6]; 50 mg/kg per day for 4 days): significantly prolonged; U46619 concentration-platelet aggregation response curve (TxA2 receptor; pretreatment 20 μM and 50 μM): shifted parallelly to the right; maximum level of platelet aggregation (TxA2 receptor; pretreatment 20 μM and 50 μM): not significantly affected
O=C(O)CCCOc1ccccc1C(=O)/C=C/c1ccc(F)cc1 [Compound 3]	competitively antagonize	shifted parallelly to the right	not significantly affected	70 nM	inhibited	30 nM	inhibited	–	COX1 (Inhibition rate %) (human recombinant COX1; 1 μM): 19.1%; COX1 (Inhibition rate %) (human recombinant COX1; 10 μM): 61.6%; COX1 (Inhibition rate %) (human recombinant COX1; 100 μM): 89.8%; COX1 versus COX2 inhibitory effect (human recombinant COX1; human recombinant COX1 and COX2, 1-100 μM): better inhibitory effect on COX1; COX2 (Inhibition rate %) (human recombinant COX2; 10 μM): 26.7%; COX2 (Inhibition rate %) (human recombinant COX2; 100 μM): 48.6%
